Measured values as given in patent US10941382B2, “Platelet production promoter and method of producing platelets using same” (Kyoto University, priority 2016, dated 2021).

What was measured:
[1] = system: MKCL SeV2; assay: Relative number of platelets by FACS (anti-CD41/anti-CD42b) from immortalized megakaryocyte line cultured with inhibitor; type: cell-based, human; conditions: 7th day of cultivation; 6-well dish; medium with 10 μM Y-27632, 50 ng/mL TPO, 50 ng/mL SCF; conclusion from FIG. 3 and FIG. 4 results
Experimental: The platelet production-promoting effect of the Wnt inhibitor and FLT3 inhibitor was then investigated. MKCL SeV2, on which the aforementioned reporter immortalized megakaryocyte cell line (MKCL#12-23 cre2) was based, was cultured in a 6-well dish on a differentiation medium supplemented with the Wnt or FLT3 inhibitor, 10 μM Y-27632, 50 ng/mL TPO, and 50 ng/mL SCF, or on a differentiation medium supplemented with 0.75 μM SR1, 10 μM Y-27632, 50 ng/mL TPO, and 50 ng/mL SCF (positive control), or on a differentiation medium supplemented with 0.1% DMSO, 10 μM Y-27632, 50 ng/mL TPO, and 50 ng/mL SCF (negative control). On the 7th day of cultivation, the culture medium was suspended and the supernatant was recovered; staining with anti-CD41 antibody and anti-CD42b antibody was performed; and FACS analysis was carried out. The relative number of platelets was calculated with correction of the platelet count for use of the particular inhibitor with the platelet count for the positive control (made 100%) and the platelet count for the negative control (made 0%) (FIG. 4).

[2] = system: iPS cells (TkDA3-4); assay: Platelet production from iPS cell-derived cells under nonuse of feeder cells, FACS (anti-CD41/anti-CD42b); type: cell-based; conditions: 10 days of culture, 1 μM C59 or 3.3 μM FLT3 inhibitor versus 0.75 μM SR1, heparin, Y-27632, TPO, SCF
Experimental: iPS cells (TkDA3-4) were cultured and a colony was detached using a cell scraper and was cultured on a differentiation medium supplemented with […] VEGF. After 14 days, the cells were recovered using a cell scraper and 25 U/mL heparin, 10 μM Y-27632, 100 ng/mL TPO, and 50 ng/mL SCF were added. 0.1% DMSO, 0.75 μM SR1, 1 μM C59 (Calbiochem), or 3.3 μM FLT3 inhibitor (Santa Cruz Biotechnology) was also added to this culture medium and culture was carried out for 10 days. This was also carried out under the condition of the use of feeder cells as described above. The obtained cells were suspended and the supernatant was recovered; staining with anti-CD41 antibody and anti-CD42b antibody was performed; and FACS analysis was carried out (FIG. 4).

[3] = system: reporter immortalized megakaryocyte cell line (MKCL#12-23 cre2); assay: VENUS fluorescence intensity of reporter immortalized megakaryocyte cell line cultured with inhibitor; type: cell-based, human; conditions: 7th day of culture; 96-well dish; medium with 10 μM Y-27632, 50 ng/mL TPO, 50 ng/mL SCF; versus 0.1% DMSO negative control
Experimental: The platelet production-promoting effect of a Wnt inhibitor and FLT3 inhibitor was then investigated. The aforementioned reporter immortalized megakaryocyte cell line (MKCL#12-23 cre2) was cultured in a 96-well dish on a differentiation medium supplemented with the particular inhibitor at a prescribed concentration, 10 μM Y-27632, 50 ng/mL TPO, and 50 ng/mL SCF, or on a differentiation medium supplemented with 0.75 μM SR1, 10 μM Y-27632, 50 ng/mL TPO, and 50 ng/mL SCF (positive control), or on a differentiation medium supplemented with 0.1% DMSO, 10 μM Y-27632, 50 ng/mL TPO, and 50 ng/mL SCF (negative control). When the VENUS fluorescence intensity was measured on the cells on the 7th day of culture, the fluorescence intensity was increased for media to which the Wnt inhibitor or FLT3 inhibitor had been added. The results of calculation of the relative fluorescence intensity are given in FIG. 3, where the platelet count for use of the particular inhibitor was corrected with the platelet count for the positive control (made 100%) and the platelet count for the negative control (made 0%).

| Structure (SMILES) | platelet production-promoting effect (platelet inducer) [1] | platelet production capacity compared with SR1 [2] | VENUS fluorescence intensity [3] |
| --- | --- | --- | --- |
| Cc1cc(-c2ccc(CC(=O)Nc3ccc(-c4cccnc4)cc3)cc2)ccn1 [C59, 4-(2-methyl-4-pyridinyl)-N-[4-(3-pyridinyl)phenyl]benzeneacetamide] | strong platelet inducers | same as or greater | increased |
| COc1ccc(C(=O)Nc2sc3c(c2C(N)=O)CCCC3)cc1OC [FLT3 inhibitor, 2-[(3,4-dimethoxybenzoyl)amino]-4,5,6,7-tetrahydrobenzo[b]thiophene-3-carboxamide] | strong platelet inducers | same as or greater | increased |
